PubChem BioAssay AID330 (DTP/NCI, 2004)
Values joined by “and” are separate entries in the source; they are usually repeats but may differ in a detail not shown here. Equal entries are not always repeated. Inconclusive results and toxic doses are left out.

Tested on: P388 leukemia ip, CD2F1 mice, survival T/C
Test: NCI In Vivo Anticancer Drug Screen. Data for tumor model P388 Leukemia (intraperitoneal) in CD2F1 (CDF1) mice
Details: endpoint: median survival time, higher = longer survival
Summary of the method: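 Mice carrying the transplanted tumor received test compound or vehicle. Survival was recorded in each group, and the value is the treated-group measurement divided by that of the vehicle-treated control group.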

[1] = dose: 50.0 mg/kg/injection, schedule: Q01DX005 (ip), vehicle: saline with Tween-80
[2] = dose: 50.0 mg/kg/injection, schedule: Q04DX003 (ip), vehicle: saline
[3] = dose: 100.0 mg/kg/injection, schedule: Q01DX009 (ip), vehicle: saline
[4] = dose: 100.0 mg/kg/injection, schedule: Q04DX003 (ip), vehicle: saline
[5] = dose: 200.0 mg/kg/injection, schedule: Q04DX003 (ip), vehicle: saline
[6] = dose: 60.0 mg/kg/injection, schedule: Q01DX005 (ip), vehicle: saline with Tween-80
[7] = dose: 120.0 mg/kg/injection, schedule: Q01DX005 (ip), vehicle: saline with Tween-80
[8] = dose: 25.0 mg/kg/injection, schedule: Q01DX009 (ip), vehicle: saline with Tween-80
[9] = dose: 50.0 mg/kg/injection, schedule: Q01DX009 (ip), vehicle: saline
[10] = dose: 200.0 mg/kg/injection, schedule: Q01DX009 (ip), vehicle: saline
[11] = dose: 12.5 mg/kg/injection, schedule: Q01DX009 (ip), vehicle: water
[12] = dose: 6.25 mg/kg/injection, schedule: Q01DX009 (ip), vehicle: saline with Tween-80
[13] = dose: 240.0 mg/kg/injection, schedule: Q01DX005 (ip), vehicle: saline with Tween-80

In the case of CCCN1C=C(C(=O)OC)C(N)=C(C#N)/C1=C\C=C(/C#N)C(=O)OC, the T/C (dose: 50.0 mg/kg/injection, schedule: Q04DX002 (ip), vehicle: Klucel (hydroxypropylcellulose) (HPC)) is reported as 93 % of control, the T/C (dose: 100.0 mg/kg/injection, schedule: Q04DX002 (ip), vehicle: Klucel (hydroxypropylcellulose) (HPC)) is reported as 100 % of control and the T/C (dose: 200.0 mg/kg/injection, schedule: Q04DX002 (ip), vehicle: Klucel (hydroxypropylcellulose) (HPC)) is reported as 90 % of control.

O=C(/C(=N/Nc1ccccc1)C(=S)Nc1ccccc1)c1ccccc1 was tested, and the T/C (dose: 3.13 mg/kg/injection, schedule: Q01DX005 (ip), vehicle: saline with Tween-80) was 99 % of control, the T/C (dose: 6.25 mg/kg/injection, schedule: Q01DX005 (ip), vehicle: saline with Tween-80) was 95 % of control and the T/C (dose: 12.5 mg/kg/injection, schedule: Q01DX005 (ip), vehicle: saline with Tween-80) was 91 % of control and 92 % of control. The T/C (dose: 25.0 mg/kg/injection, schedule: Q01DX005 (ip), vehicle: saline with Tween-80) was 90 % of control, the T/C [1] was 89 % of control and 93 % of control and the T/C (dose: 200.0 mg/kg/injection, schedule: Q01DX005 (ip), vehicle: saline with Tween-80) was 90 % of control.

In the case of CCCCCCCCCC(=O)Oc1cccc2c1CC(C[Se]c1ccccc1)C(=O)O2 (configuration not stated), the T/C (dose: 1.88 mg/kg/injection, schedule: Q01DX005 (ip), vehicle: saline with Tween-80) is reported as 97 % of control, the T/C (dose: 3.75 mg/kg/injection, schedule: Q01DX005 (ip), vehicle: saline with Tween-80) is reported as 101 % of control and the T/C (dose: 7.5 mg/kg/injection, schedule: Q01DX005 (ip), vehicle: saline with Tween-80) is reported as 89 % of control and 91 % of control.

For C[CH2][Ge]([c]1ccccc1)[c]1ccccc1.C[CH2][Ge]([c]1ccccc1)[c]1ccccc1.c1cc[c]([Ge]([O][Ge]([c]2ccccc2)[c]2ccccc2)[c]2ccccc2)cc1, the T/C (dose: 50.0 mg/kg/injection, schedule: Q01DX005 (ip), vehicle: saline) was 91 % of control, the T/C (dose: 100.0 mg/kg/injection, schedule: Q01DX005 (ip), vehicle: saline) was 91 % of control and the T/C (dose: 200.0 mg/kg/injection, schedule: Q01DX005 (ip), vehicle: saline) was 91 % of control.

With CCOC1OCN(C)CC1(C)C (configuration not stated) the T/C [2] was 109 % of control, the T/C [3] was 150 % of control and the T/C [4] was 113 % of control. The T/C [5] was 109 % of control.

With CCc1ccc(N2C(=O)C(CC(=O)O)SC23C(=O)N(Cc2ccccc2)c2ccccc23)cc1 (configuration not stated) the T/C [6] was 94 % of control and the T/C [7] was 97 % of control.

With CN(N=Nc1ccc(C#N)cc1)C(C)(C)C the T/C [1] was 100 % of control and the T/C (dose: 100.0 mg/kg/injection, schedule: Q01DX005 (ip), vehicle: saline with Tween-80) was 100 % of control.

With O=C(CC(=O)c1ccccc1)Nc1ccc(-c2nc3ccccc3c(=O)[nH]2)cc1 the T/C (dose: 50.0 mg/kg/injection, schedule: Q01DX009 (ip), vehicle: saline + alcohol) was 97 % of control, the T/C (dose: 100.0 mg/kg/injection, schedule: Q01DX009 (ip), vehicle: saline + alcohol) was 92 % of control and the T/C (dose: 200.0 mg/kg/injection, schedule: Q01DX009 (ip), vehicle: saline + alcohol) was 94 % of control.

With Cc1cc([O-])c([I+]c2ccccc2)c(=O)[nH]1 the T/C (dose: 50.0 mg/kg/injection, schedule: Q01DX005 (ip), vehicle: Klucel (hydroxypropylcellulose) (HPC)) was 103 % of control, the T/C (dose: 100.0 mg/kg/injection, schedule: Q01DX005 (ip), vehicle: Klucel (hydroxypropylcellulose) (HPC)) was 110 % of control and the T/C (dose: 200.0 mg/kg/injection, schedule: Q01DX005 (ip), vehicle: Klucel (hydroxypropylcellulose) (HPC)) was 102 % of control.

In the case of COc1ccc(C(=O)c2no[n+]([O-])c2C(=O)c2ccc(OC)cc2)cc1, the T/C [8] is reported as 108 % of control, the T/C (dose: 50.0 mg/kg/injection, schedule: Q01DX009 (ip), vehicle: saline with Tween-80) is reported as 104 % of control and 107 % of control and the T/C (dose: 100.0 mg/kg/injection, schedule: Q01DX009 (ip), vehicle: saline with Tween-80) is reported as 100 % of control and 106 % of control. For the same compound, the T/C (dose: 200.0 mg/kg/injection, schedule: Q01DX009 (ip), vehicle: saline with Tween-80) was 115 % of control and the T/C (dose: 400.0 mg/kg/injection, schedule: Q01DX009 (ip), vehicle: saline with Tween-80) was 123 % of control.

COC1C(O)CC(OC2CC(OC3CC(O[C@@H]4C(=O)c5c(cc6cc(OC7CC(OC8CC(O)C(O)C(C)O8)C(O)C(C)O7)c(C)c(O)c6c5O)C[C@H]4[C@H](OC)C(=O)[C@@H](O)[C@@H](C)O)OC(C)C3O)OC(C)C2O)OC1C (some centres not stated) was tested, and the T/C (dose: 375.0 micrograms/kg/injection, schedule: Q01DX009 (ip), vehicle: saline) was 121 % of control and the T/C (dose: 1500.0 micrograms/kg/injection, schedule: Q01DX009 (ip), vehicle: saline) was 170 % of control.

For C/C=C(\C)C(=O)OC1C(O)C(C)(C)C2C3C(=O)C=C(C)C2C3(C)C1OC(=O)/C(C)=C/C (configuration not stated), the T/C (dose: 12.5 mg/kg/injection, schedule: Q01DX009 (ip), vehicle: Klucel (hydroxypropylcellulose) (HPC)) was 103 % of control, the T/C (dose: 25.0 mg/kg/injection, schedule: Q01DX009 (ip), vehicle: Klucel (hydroxypropylcellulose) (HPC)) was 100 % of control and the T/C (dose: 50.0 mg/kg/injection, schedule: Q01DX009 (ip), vehicle: Klucel (hydroxypropylcellulose) (HPC)) was 103 % of control. For the same compound, the T/C (dose: 100.0 mg/kg/injection, schedule: Q01DX009 (ip), vehicle: Klucel (hydroxypropylcellulose) (HPC)) was 103 % of control.

CC/C(=N/NS(=O)(=O)c1ccc(C)cc1)c1ccc(Cl)cc1 was tested, and the T/C [9] was 97 % of control, the T/C [3] was 92 % of control and the T/C [10] was 99 % of control.

With Cc1ccno1 the T/C [9] was 105 % of control, the T/C [3] was 105 % of control and the T/C [10] was 105 % of control. For the same compound, the T/C (dose: 400.0 mg/kg/injection, schedule: Q01DX009 (ip), vehicle: saline) was 100 % of control.

With Cn1c(=O)nc2n(-c3ccc(Cl)c(Cl)c3)c3ccccc3nc-2c1=O the T/C (dose: 100.0 mg/kg/injection, schedule: Q01DX001 (ip), vehicle: Klucel (hydroxypropylcellulose) (HPC)) was 107 % of control, the T/C (dose: 200.0 mg/kg/injection, schedule: Q01DX001 (ip), vehicle: Klucel (hydroxypropylcellulose) (HPC)) was 98 % of control and the T/C (dose: 400.0 mg/kg/injection, schedule: Q01DX001 (ip), vehicle: Klucel (hydroxypropylcellulose) (HPC)) was 94 % of control.

With Cc1nccnc1NN=O the T/C (dose: 3.12 mg/kg/injection, schedule: Q01DX009 (ip), vehicle: water) was 101 % of control, the T/C (dose: 6.25 mg/kg/injection, schedule: Q01DX009 (ip), vehicle: water) was 104 % of control and the T/C [11] was 111 % of control and 113 % of control. The T/C (dose: 100.0 mg/kg/injection, schedule: Q01DX009 (ip), vehicle: water) was 87 % of control.

In the case of O=C1c2ccccc2C(=O)N1CC[P+](c1ccccc1)(c1ccccc1)c1ccccc1, the T/C (dose: 0.78 mg/kg/injection, schedule: Q01DX009 (ip), vehicle: water) is reported as 87 % of control, the T/C (dose: 1.56 mg/kg/injection, schedule: Q01DX009 (ip), vehicle: water) is reported as 112 % of control and 103 % of control and 115 % of control and the T/C (dose: 3.13 mg/kg/injection, schedule: Q01DX009 (ip), vehicle: saline with Tween-80) is reported as 121 % of control. The T/C (dose: 3.13 mg/kg/injection, schedule: Q01DX009 (ip), vehicle: water) was 123 % of control and 118 % of control and 120 % of control, the T/C [12] was 88 % of control and the T/C [11] was 123 % of control and 105 % of control. For the same compound, the T/C (dose: 18.8 mg/kg/injection, schedule: Q01DX009 (ip), vehicle: water) was 93 % of control, the T/C [8] was 123 % of control and the T/C (dose: 25.0 mg/kg/injection, schedule: Q01DX009 (ip), vehicle: water) was 98 % of control.

With OC1CCC(O)C1(Cl)Cl (configuration not stated) the T/C (dose: 25.0 mg/kg/injection, schedule: Q04DX003 (ip), vehicle: saline) was 99 % of control and 96 % of control, the T/C [2] was 98 % of control and 107 % of control and the T/C [4] was 98 % of control and 103 % of control and 118 % of control. The T/C [5] was 98 % of control and 101 % of control and 124 % of control and the T/C (dose: 400.0 mg/kg/injection, schedule: Q04DX003 (ip), vehicle: saline) was 117 % of control.

With Cc1cc2nc(CC(=O)c3ccccc3)c(=O)[nH]c2cc1C the T/C [6] was 90 % of control, the T/C [7] was 90 % of control and the T/C [13] was 87 % of control.

With O=C(NC(Cc1ccccc1)C(=O)O)C(=O)c1c[nH]c2ccc(Cl)cc12 (configuration not stated) the T/C [6] was 100 % of control, the T/C [7] was 96 % of control and the T/C [13] was 94 % of control.

With O=S1(N2CC2)=NP(N2CC2)(N2CC2)=NP(N2CC2)(N2CC2)=N1 (configuration not stated) the T/C (dose: 100.0 mg/kg/injection, schedule: Q04DX002 (ip), vehicle: saline) was 168 % of control and the T/C (dose: 150.0 mg/kg/injection, schedule: Q04DX002 (ip), vehicle: saline) was 198 % of control.

Clc1[nH]nc2ccccc12 was tested, and the T/C [12] was 95 % of control, the T/C (dose: 12.5 mg/kg/injection, schedule: Q01DX009 (ip), vehicle: saline with Tween-80) was 100 % of control and the T/C (dose: 12.5 mg/kg/injection, schedule: Q04DX003 (ip), vehicle: saline with Tween-80) was 100 % of control. For the same compound, the T/C [8] was 86 % of control, the T/C (dose: 25.0 mg/kg/injection, schedule: Q04DX003 (ip), vehicle: saline with Tween-80) was 100 % of control and the T/C (dose: 50.0 mg/kg/injection, schedule: Q04DX003 (ip), vehicle: saline with Tween-80) was 100 % of control.
